Tests used:
[1] = biological target: human recombinant cyclophilin (Homo sapiens, UniProt P62937); assay: competitive ELISA test of cyclophilin binding (Binding Ratio); settings: relative to cyclosporin A in a simultaneous test
Text: A cyclosporin is considered as binding to cyclophilin if it binds to human recombinant cyclophilin at least one fifth as well as does cyclosporin A in the competitive ELISA test described by Quesniaux in Eur. J. Immunol. […] The results are expressed as the Binding Ratio (BR), which is the log to the base 10 of the ratio of the IC50 of the test compound and the IC50 in a simultaneous test of cyclosporin A itself.

[2] = tested on: Balb/c mice spleen cells stimulated with irradiated CBA spleen cells; assay: Mixed Lymphocyte Reaction (MLR); format: cell-based
Text: Cyclosporins which bind strongly to cyclophilin but are not immunosuppressive have been identified. A cyclosporin is considered to be non-immunosuppressive when it has an activity in the Mixed Lymphocyte Reaction (MLR) of no more than 5%, preferably no more than 2%, that of cyclosporin A. The Mixed Lymphocyte Reaction is described by T. Meo in “Immunological Methods”, L. Lefkovits and B. Peris, Eds., Academic Press, N.Y. pp. 227-239 (1979). Spleen cells (0.5×10^6) from Balb/c mice (female, 8-10 weeks) are co-incubated for 5 days with 0.5×10^6 irradiated (2000 rads) or mitomycin C treated spleen cells from CBA mice (female, 8-10 weeks). The irradiated allogeneic cells induce a proliferative response in the Balb c spleen cells which can be measured by labeled precursor incorporation into the DNA. […] The IC50 found for the test compound in the MLR is compared with that found for cyclosporin A in a parallel experiment. In addition, non-immunosuppressive cyclosporins lack the capacity of inhibiting CN and the downstream NF-AT pathway.
IR=immunosuppressive Ratio, expressed as a percentage of the activity relative to Cyclosporin A.

[3] = tested on: HCV; settings: ribavirin alone; cited from earlier work
[4] = tested on: HCV subgenomic replicon in MH-14 cells; assay: immunoblot analysis of HCV NS5A and NS5B proteins in MH-14 HCV replicon cells; format: cell-based; settings: 7 days
Experimental: (§1) Cell culture: Huh-7 and MH-14 cells, HCV replicon cells, are cultured in Dulbecco's modified Eagle's medium (DMEM) with 10% fetal bovine serum (FBS). PH5CH8 cells are cultured in a 1:1 mixture of DMEM and F12 medium supplemented with 100 ng/ml of epidermal growth factor, 10 μ/ml of insulin, 0.36 μg/ml of hydrocortisone, 5 μg/ml of transferrin, 5 μg/ml of linoleic acid, 20 ng/ml of selenium, 4 μg/ml of glucagon, 10 ng/ml of prolactin, 10 μg/ml of gentamicin, 200 μg/ml of kanamycin, and 2% FBS.
Immunoblot analysis: Immunoblot analysis is performed as described by K. Watashi et al., Virology 2001, 286, 391-402. The primary antibodies used in this experiment are anti-NS5A, anti-NS5B, and anti-β-actin (Sigma) antibodies.
The effect of various cyclosporins of the invention on the replication of the HCV genome using MH-14 cells, in which the HCV subgenomic replicon as shown in FIG. 1A is autonomously replicated.

[5] = tested on: HCV in PH5CH8 cells (non-neoplastic hepatocyte cell line); assay: in vitro HCV infection experiment in PH5CH8 cells; format: cell-based; settings: PH5CH8 cells treated continuously; untreated cells increase about 10-fold
Experimental: as §1
(§2) Real time RT-PCR analysis: The 5′-UTR of HCV genome RNA is quantified using the ABI PRISM 7700 sequence detector (AppliedBiosystems) as described by T. Takeuchi et al., Gastroenterology, 1999, 116, 636-642. The forward and reverse primers used in this experiment are 5′-[…]-3′ and 5′-[…]-3′, respectively. The fluorogenic probe is 5′-[…]-3′. As an internal control, ribosomal RNA is also quantified using TaqMan Ribosomal RNA Control Reagents (Applied Biosystems).

[6] = tested on: HCV subgenomic replicon in MH-14 cells; assay: northern blot analysis of replicon RNA in MH-14 cells; format: cell-based; settings: 1 μg/ml, 7 days
Experimental: as §1
Northern blot analysis: Northern blot analysis is performed as described by H. Kishine et al., Biochem. Biophys. Res. Commun., 2002, 47, 119-125. The probe complementary to the NS5B sequence used in this experiment is described by H. Kishine, supra.
(§3) Replicon RNA is analyzed in MH-14 cells treated with or without a cyclosporin of the invention or IFNα for 7 days by northern blot analysis.

[7] = tested on: HCV subgenomic replicon in MH-14 cells; settings: 7th day
Experimental: as §2, §3

human recombinant cyclophilin, sequence (P62937 whole entry): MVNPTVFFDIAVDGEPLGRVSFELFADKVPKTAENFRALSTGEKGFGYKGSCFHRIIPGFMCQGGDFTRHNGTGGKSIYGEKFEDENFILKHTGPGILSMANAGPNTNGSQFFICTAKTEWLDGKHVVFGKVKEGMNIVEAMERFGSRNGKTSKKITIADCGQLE

Compound: [MeVa]^4-Ciclosporin
- BR (Binding Ratio: log to the base 10 of the ratio of the IC50 of the test compound and the IC50 of cyclosporin A) [1]: 0.1

Compound: [8′-hydroxy-MeBmt]^1-Ciclosporin
- IR (immunosuppressive Ratio, percentage of the activity relative to Cyclosporin A) [2]: 1.8%
- BR (Binding Ratio: log to the base 10 of the ratio of the IC50 of the test compound and the IC50 of cyclosporin A) [1]: 0.35

Compound: [MeAla]^6-Ciclosporin
- IR (immunosuppressive Ratio, percentage of the activity relative to Cyclosporin A) [2]: 3.2%
- BR (Binding Ratio: log to the base 10 of the ratio of the IC50 of the test compound and the IC50 of cyclosporin A) [1]: −0.4

Compound: [γ-hydroxy-MeLeu]^9-Ciclosporin
- IR (immunosuppressive Ratio, percentage of the activity relative to Cyclosporin A) [2]: 2.9%
- BR (Binding Ratio: log to the base 10 of the ratio of the IC50 of the test compound and the IC50 of cyclosporin A) [1]: 0.15

Compound: NC(=O)c1ncn([C@@H]2O[C@H](CO)[C@@H](O)[C@H]2O)n1 [Ribavirin, 1-β-D-ribofuranosyl-1-1,2,4-triazole-3-caroxamide]
- patients with serum amino transferase levels reduced to normal [3]: 40 % of patients
- serum levels of HCV-RNA [3]: does not lower

Compound: [MeVal]^5-Ciclosporin
- IR (immunosuppressive Ratio, percentage of the activity relative to Cyclosporin A) [2]: 5.3%
- BR (Binding Ratio: log to the base 10 of the ratio of the IC50 of the test compound and the IC50 of cyclosporin A) [1]: 0.4

Compound: [Ethyl-Ile]^4-Ciclosporin
- BR (Binding Ratio: log to the base 10 of the ratio of the IC50 of the test compound and the IC50 of cyclosporin A) [1]: 0.1

Compound: IFNα
- amount of HCV NS5A and NS5B proteins by immunoblot analysis ([4]; 100 U/ml, positive control): undetectable
- increase of HCV RNA genome titer, 5th day versus 1st day post-inoculation [5]: not observed

Compound: [Ethyl-Val]^4-Ciclosporin
- BR (Binding Ratio: log to the base 10 of the ratio of the IC50 of the test compound and the IC50 of cyclosporin A) [1]: 0

Compound: [Melle]^4-Ciclosporin
- amount of HCV NS5A and NS5B proteins by immunoblot analysis ([4]; 1 μg/ml): undetectable
- amount of replicon RNA by northern blot [6]: undetectable level
- level of HCV RNA relative to the original [7]: about 1/400
- increase of HCV RNA genome titer, 5th day versus 1st day post-inoculation [5]: not observed
- BR (Binding Ratio: log to the base 10 of the ratio of the IC50 of the test compound and the IC50 of cyclosporin A) [1]: −0.2
